Here are results for 21 compounds from patent publication US6683055B1, “Low molecular weight inhibitors of complement proteases” (BASF Aktiengesellschaft, priority 1999, dated 2004).

Holding throughout (assay type): biochemical
One experiment deals with T1, factor D (Homo sapiens, UniProt P00746).
T1 construct: purchased Calbiochem 341273
Description: Inhibition of the protease factor D (Example D). The note with it: substrate Z-Lys-SBzl, run along as inhibitor in the test. The text has this: Example D Testing of Inhibitors for Inhibition of the Protease Factor D In the alternative route of the complement system, factor D performs a central function. Owing to the low plasma concentration of factor D, the enzymatic step involving the cleavage of factor B by factor D constitutes the rate-determining step in the alternative route of complement activation. Owing to the limiting role which this enzyme plays in the alternative route, factor D is a target for the inhibition of the complement system. The commercial substrate Z-Lys-SBzl*HCl is converted by the enzyme factor D (literature: Kam, C. M. et al., J. Biol. Chem. 262, 1987, 3444-3451). The detection of the cleaved substrate is effected by reaction with Ellmann's reagent. The product formed is detected spectrophotometrically. The reaction can be monitored online. This permits measurements of enzyme kinetics. [table] The batches are pipetted together into microtiter plates. After mixing of buffer, substrate and Ellmann's reagent (possibly inhibitors), the enzyme reaction is started by adding in each case 5 μl of factor D. Incubation takes place at room temperature for 60 minutes. Measurement at 405 nm for 1 hour at 3 minute intervals The result is plotted graphically. […]

In experiment [1] the target is T2, C1r from human plasma, activated, two-chain form (Homo sapiens, UniProt P00736).
T2 construct: from tissue; host or cells: human plasma
T2 sequence (P00736 18-463 partner limits assumed): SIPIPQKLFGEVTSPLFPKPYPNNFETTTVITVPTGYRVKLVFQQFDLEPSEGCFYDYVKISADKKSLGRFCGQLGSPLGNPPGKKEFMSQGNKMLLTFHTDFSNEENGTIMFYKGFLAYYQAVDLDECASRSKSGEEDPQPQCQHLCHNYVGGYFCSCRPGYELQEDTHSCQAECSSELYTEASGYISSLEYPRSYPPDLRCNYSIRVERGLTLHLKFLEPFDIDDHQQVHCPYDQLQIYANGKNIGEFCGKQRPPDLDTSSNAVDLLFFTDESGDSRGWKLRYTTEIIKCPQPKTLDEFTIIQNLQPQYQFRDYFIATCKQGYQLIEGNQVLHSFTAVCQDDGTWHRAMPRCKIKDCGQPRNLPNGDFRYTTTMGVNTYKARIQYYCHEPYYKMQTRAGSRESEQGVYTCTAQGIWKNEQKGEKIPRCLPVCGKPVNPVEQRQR
T2 sequence (P00736 464-705 limits assumed): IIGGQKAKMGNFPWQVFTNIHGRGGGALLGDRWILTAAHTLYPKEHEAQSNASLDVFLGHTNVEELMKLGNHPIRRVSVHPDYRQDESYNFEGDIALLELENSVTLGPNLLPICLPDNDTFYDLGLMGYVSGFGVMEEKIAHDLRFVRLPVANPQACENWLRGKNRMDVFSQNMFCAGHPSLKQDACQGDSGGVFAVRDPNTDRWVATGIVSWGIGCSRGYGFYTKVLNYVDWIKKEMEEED
The experiment is described as follows: Color substrate test for C1r inhibition (Example A). Particulars: amidolytic C1r activity, substrate Cbz-Gly-Arg-S-Bzl; read-out: C1R IC50 according to Example A. The text has this: Color Substrate Test for C1r Inhibition

In experiment [2] the target is T3, C1s from human plasma, activated, two-chain form (Homo sapiens, UniProt P09871).
T3 construct: from tissue; host or cells: human plasma
T3 sequence (P09871 16-437 partner limits assumed): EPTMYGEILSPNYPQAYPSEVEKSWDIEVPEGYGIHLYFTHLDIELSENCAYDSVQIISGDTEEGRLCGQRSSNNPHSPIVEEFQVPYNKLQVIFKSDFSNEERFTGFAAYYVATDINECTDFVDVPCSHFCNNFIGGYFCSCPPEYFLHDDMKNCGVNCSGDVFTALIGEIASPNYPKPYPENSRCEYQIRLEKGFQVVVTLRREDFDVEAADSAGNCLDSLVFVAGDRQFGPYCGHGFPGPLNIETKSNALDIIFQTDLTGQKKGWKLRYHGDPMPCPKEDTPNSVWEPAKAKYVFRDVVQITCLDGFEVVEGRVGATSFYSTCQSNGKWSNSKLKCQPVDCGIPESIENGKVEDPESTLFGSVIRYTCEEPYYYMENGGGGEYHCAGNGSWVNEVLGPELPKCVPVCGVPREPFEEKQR
T3 sequence (P09871 438-688 limits assumed): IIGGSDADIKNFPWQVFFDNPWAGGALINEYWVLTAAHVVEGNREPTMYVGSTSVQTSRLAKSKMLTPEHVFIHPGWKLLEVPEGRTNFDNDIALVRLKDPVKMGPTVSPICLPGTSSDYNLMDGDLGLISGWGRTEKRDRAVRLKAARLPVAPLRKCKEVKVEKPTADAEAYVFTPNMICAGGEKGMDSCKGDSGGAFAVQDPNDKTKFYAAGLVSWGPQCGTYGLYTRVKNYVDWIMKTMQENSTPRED
The experiment is described as follows: Color substrate test for C1s inhibition (Example B). The note with it: amidolytic C1s activity, substrate Cbz-Gly-Arg-S-Bzl; read-out: C1S IC50 according to Example B. An excerpt:
Material and Methods: Color Subrate Test for C1s Inhibition

As a reminder, the IC50 is the concentration that inhibits the measured activity by half.

T1 sequence (P00746 26-253): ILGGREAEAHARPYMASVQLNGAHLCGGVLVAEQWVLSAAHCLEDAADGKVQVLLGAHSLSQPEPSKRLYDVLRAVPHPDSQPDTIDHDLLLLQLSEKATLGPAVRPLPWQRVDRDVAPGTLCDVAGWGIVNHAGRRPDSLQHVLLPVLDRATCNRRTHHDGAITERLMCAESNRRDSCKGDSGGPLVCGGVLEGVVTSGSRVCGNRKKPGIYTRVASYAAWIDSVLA

In the case of `N=C(N)c1ccc2cc(OC(=O)c3ccc(N=C(N)N)cc3)ccc2c1` [FUT-175], the “inhibition of factor D” value on factor D is reported as “effective inhibitor”. `N=C(N)c1csc(CNC(=O)[C@@H]2C=CCN2C(=O)[C@@H](CC2CCCCC2)NCC(=O)O)c1` [Example 38, HOOC—CH2-(D)Cha-Pyr-NH—CH2-5-(3-am)-thioph.CH3COOH]: the IC50 in experiment [1] worked out at 10 µM; in experiment [2], 5 µM. The matching figures for “HOOC—CH2-(D)Cha-Pyr-NH—CH2-5-(3-Me-2-am)-thioph.CH3COOH [Example 53]”: 8 µM and 20 µM. In the case of `N=C(N)c1ccc(CNC(=O)[C@@H]2CCCN2C(=O)[C@H](NS(=O)(=O)CC(=O)O)C2CCCCC2)cn1` [Example 16, HOOC—CH2—SO2-(D)Chg-Pro-NH-3-(6-am)-pico.CH3COOH], the IC50 in experiment [1] was over 100 µM; in experiment [2], 20 µM. With `N=C(N)c1ccc(CNC(=O)[C@@H]2CCN2C(=O)[C@H](NCC(=O)O)C2CCCCC2)s1` [Example 31, HOOC—CH2-(D)Chg-Aze-NH-CH2-5-(2-am)-thioph], the figures for the concentration for half-maximal inhibition (IC50) in experiment [1] and in experiment [2] were 3 µM and 10 µM, respectively. Take `N=C(N)c1ccc(CNC(=O)[C@@H]2C=CCN2C(=O)[C@H](NCC(=O)O)C2CCCCC2)s1` [Example 29, HOOC—CH2-(D)Chg-Pyr-NH-CH2-5-(2-am)-thioph.CH3COOH]: the IC50 amounted to 0.9 µM in experiment [1] and 0.6 µM in experiment [2].

Regarding `CCOC(=O)CCCCCN[C@@H](C(=O)N1CCC[C@H]1C(=O)NCc1ccc(C(=N)N)nc1)C1CCCCC1` [Example 25, C2H5OOC—(CH2)5-(D)Chg-Pro-NH-3-(6-am)-pico.CH3COOH], the IC50 turned out to be 50 µM in experiment [1] and 6 µM in experiment [2].

With “HOOC—CH2—CH2-(D)Cha-Pro-NH-CH2-5-(2-am)-thioph.CH3COOH [Example 30]”, the results for the IC50 in experiment [1] and in experiment [2] were over 100 µM and 5 µM, respectively. The matching figures for `N=C(N)c1csc(CNC(=O)C2C=CCN2C(=O)C(NCC(=O)O)C2CCCCC2)c1Cl` (stereo not drawn) [Example 49, HOOC—CH2-(D)Chg-Pyr-NH—CH2-5-(4-Cl-3-am)-thioph.CH3COOH]: 1 µM and 1 µM. Consider `N=C(N)c1ccc(CNC(=O)[C@@H]2C=CCN2C(=O)CN(Cc2ccccc2)Cc2ccccc2)cn1` [Example 28, (C6H5—CH2)2-Gly-Pyr-NH-3-(6-am)-pico.CH3COOH], for which the values for the IC50 in experiment [1] and in experiment [2] were over 100 µM and 20 µM, respectively.

Consider `N=C(N)c1csc(CNC(=O)C2SCCN2C(=O)[C@H](NCC(=O)O)C2CCCCC2)c1` (stereo partly drawn) [Example 45, HOOC—CH2-(D)Chg-Thz-2-CO—NH—CH2-5-(3-am)-thioph], for which the IC50 came out at 6 µM in experiment [1] and 20 µM in experiment [2]. In the same order, the values of `N=C(N)c1csc(CNC(=O)C2C=CCN2C(=O)C(CC2CCCCC2)NCC(=O)O)c1Cl` (stereo not drawn) [Example 50, HOOC—CH2(D)Cha-Pyr-NH—CH2-5-(4-Cl-3-am)-thioph.CH3COOH] are 20 µM and 3 µM. In the same order, the values of `N=C(N)c1csc(CNC(=O)[C@@H]2CCCN2C(=O)[C@H](NCC(=O)O)C2CCCCC2)c1` [Example 43, HOOC—CH2-(D)Chg-Pro-NH—CH2-5-(3-am).thioph.2HCl] are 6 µM and 10 µM. The matching figures for `N=C(N)c1ccc(CNC(=O)[C@@H]2CCCN2C(=O)CNC(=O)CCc2ccccc2)cc1` [Example 8, C6H5—CH2—CH2—CO-Gly-Pro-NH-p-amb.HI]: over 100 µM and 6 µM. Regarding `CCCCCCCCS(=O)(=O)N[C@H](Cc1ccccc1)C(=O)N1CCC[C@H]1C(=O)NCc1ccc(C(=N)N)cc1` [Example 2, n-Octyl-SO2-(D)Phe-Pro-NH-p-amb.CH3COOH], the half-inhibitory concentration (IC50) was 50 µM in experiment [1] and 20 µM in experiment [2]. The matching figures for `Cc1c(C(=N)N)csc1CNC(=O)[C@@H]1C=CCN1C(=O)[C@H](NCC(=O)O)C1CCCCC1` [Example 51, HOOC—CH2-(D)Chg-Pyr-NH—CH2-5-(4-Me-3-am)-thioph.CH3COOH]: 40 µM and 3 µM.

With `CC1CCN[C@@H](C(=O)N2CCC[C@H]2C(=O)NCc2ccc(C(=N)N)cc2)C1` (stereo partly drawn) [Example 10, (D)(4-Me)Pic-Pro-NH-p-amb.2CH3COOH], the IC50 is over 100 µM in experiment [1] and 20 µM in experiment [2].

Take `N=C(N)c1ccc(CNC(=O)[C@@H]2CCCN2C(=O)[C@@H](Cc2ccccc2)NS(=O)(=O)c2cccnc2)cc1` [Example 3, 3-Py-SO2-(D)Phe-Pro-NH-p-amb.CH3COOH]: the concentration for half-maximal inhibition (IC50) in experiment [1] was over 100 µM; in experiment [2] it was 30 µM. In the same order, the values of `CC(C)(C)OC(=O)CCCN[C@@H](C(=O)N1CCC[C@H]1C(=O)NCc1ccc(C(=N)N)nc1)C1CCCCC1` [Example 27, t-BUOOC—(CH2)3-(D)Chg-Pro-NH-3-(6-am)-pico.CH3COOH] are 10 µM and 20 µM. The matching figures for `N=C(N)c1csc(CNC(=O)[C@@H]2C=CCN2C(=O)C(NCC(=O)O)C2CCCCCC2)c1` (some centres unmarked) [Example 41, HOOC—CH2-Cheg-Pyr-NH—CH2-5-(3-am)-thioph.CH3COOH]: 2 µM and 2 µM. The matching figures for `N=C(N)c1ccc(CNC(=O)[C@@H]2CCCN2C(=O)[C@@H](Cc2ccccc2)NS(=O)(=O)CC(F)(F)F)cc1` [Example 1, CF3—CH2—SO2-(D)Phe-Pro-NH-p-amb.CH3COOH]: over 100 µM and 6 µM.
